One may read the IC50 as the midpoint of a concentration-inhibition curve.

We go through 23 molecules from ChEMBL document CHEMBL1154668, “Design and synthesis of 6-oxo-1,6-dihydropyridines as CDK5 inhibitors” (Bioorg Med Chem Lett, 2009).

Each structure is given as a SMILES string.

Series [1] concerns the target Cyclin-dependent kinase 5/CDK5 activator 1 (Homo sapiens, UniProt Q00535). The series can be described thus: Inhibition of human CDK5/p25 assessed as histone h1 phosphorylation in presence of ATP. The series is classed as protein-complex assay.
Another series relates to Brain. The series can be described thus: Drug uptake in rat brain at 2 mg/kg, iv. The series is classed as ADME, organism-based. The settings on record: in vivo. Details: dose 2 mg/kg, route intravenous.
A further series is filed under the species Homo sapiens. The series can be described thus: Selectivity for human CDK5/p25 over human CDK2/cyclin E2.

Sequence of Cyclin-dependent kinase 5/CDK5 activator 1 (Q00535 whole entry): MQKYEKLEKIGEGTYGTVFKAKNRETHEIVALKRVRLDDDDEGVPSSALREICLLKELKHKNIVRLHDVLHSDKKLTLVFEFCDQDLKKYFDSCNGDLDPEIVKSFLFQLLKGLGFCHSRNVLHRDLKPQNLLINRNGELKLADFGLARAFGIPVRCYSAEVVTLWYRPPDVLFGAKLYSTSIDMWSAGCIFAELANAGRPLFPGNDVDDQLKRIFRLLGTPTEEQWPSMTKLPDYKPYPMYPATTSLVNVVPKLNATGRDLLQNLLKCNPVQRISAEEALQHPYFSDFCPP
Sequence of Cyclin-dependent kinase 5/CDK5 activator 1 (Q15078 whole entry, further chain): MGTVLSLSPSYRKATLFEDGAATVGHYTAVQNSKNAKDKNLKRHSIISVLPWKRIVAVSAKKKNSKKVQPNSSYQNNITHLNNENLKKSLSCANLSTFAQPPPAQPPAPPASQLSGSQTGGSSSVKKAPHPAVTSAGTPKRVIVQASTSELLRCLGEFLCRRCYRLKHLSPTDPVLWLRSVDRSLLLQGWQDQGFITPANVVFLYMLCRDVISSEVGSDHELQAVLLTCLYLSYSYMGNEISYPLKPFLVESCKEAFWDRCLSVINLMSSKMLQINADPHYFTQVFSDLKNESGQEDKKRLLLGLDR

In the case of `CCOC(=O)c1cc(-c2csc(-c3ccncc3)n2)c(=O)[nH]c1C`, the IC50 in series [1] is 131 nM. Regarding `CCOC(=O)c1cc(-c2csc(-c3ccncc3)n2)c(=O)[nH]c1COCc1ccccc1`, the half-maximal inhibitory concentration (IC50) in series [1] came to 779 nM. Same read-out and setting: as for `CCOC(=O)c1cc(-c2csc(-c3ccncc3)n2)c(=O)[nH]c1C1CC1`, the figure is 198 nM.

Turning to `CCOC(=O)c1cc(-c2csc(-c3ccnc(NCC(C)C)c3)n2)c(=O)[nH]c1C`, the IC50 in series [1] was 14 nM. On the same count and under the same terms, as for `CC(C)c1[nH]c(=O)c(-c2csc(-c3ccncc3)n2)cc1C(=O)OC1CCCN(C)C1` (stereo not drawn), the figure is 73 nM; as for `CCOC(=O)c1cc(-c2csc(-c3ccnc(NCCN(CC)CC)c3)n2)c(=O)[nH]c1C`, 139 nM. As to `CCOC(=O)c1cc(-c2csc(-c3ccncc3)n2)c(=O)[nH]c1C(C)C`, the IC50 in series [1] is 157 nM. Besides, the Drug uptake in the series with Brain is listed as 4640 ng/g.

As for `CCOC(=O)c1cc(-c2csc(-c3ccnc(Cl)c3)n2)c(=O)[nH]c1C`, the IC50 in series [1] was 160 nM.

Consider `CCOC(=O)c1cc(-c2csc(CS(=O)(=O)c3ccccc3)n2)c(=O)[nH]c1C`, for which, in series [1], the IC50 stood at 3.3 nM. The same molecule displayed a fold change (FC) in the series listed under Homo sapiens of 70. In the series on Brain, this molecule yielded a Drug uptake of 44 ng/g. As to `CC(C)c1[nH]c(=O)c(-c2csc(-c3ccncc3)n2)cc1C(=O)OC1CCN(C)CC1`, the IC50 in series [1] was determined as 647 nM. In the case of `CCOC(=O)c1cc(-c2csc(-c3ccncc3)n2)c(=O)[nH]c1CC`, in series [1], the IC50 is 4.1 nM. With `CC(C)c1[nH]c(=O)c(-c2csc(-c3ccncc3)n2)cc1C(=O)OCCN1CCCC1`, in series [1], the IC50 was 112 nM. Same read-out and setting: as for `CCOC(=O)c1cc(-c2csc(-c3ccncc3)n2)c(=O)[nH]c1C(F)(F)F`, the figure is 11500 nM.

With `CCOC(=O)c1cc(-c2csc(CS(=O)(=O)c3ccccc3)n2)c(=O)[nH]c1COCc1ccccc1`, the IC50 in series [1] was 5.3 nM. This molecule also came in with a fold change (FC) in the series filed under Homo sapiens of 70. As for `CCN(CC)CCCOC(=O)c1cc(-c2csc(-c3ccncc3)n2)c(=O)[nH]c1C(C)C`, in series [1], the IC50 turned out to be 47 nM. Regarding `CC(C)c1[nH]c(=O)c(-c2csc(-c3ccncc3)n2)cc1C(=O)OCCc1ccccc1`, the IC50 in series [1] worked out at 119 nM.

For `CCOC(=O)c1cc(-c2csc(-c3ccnc(N)c3)n2)c(=O)[nH]c1C`, in series [1], the IC50 was determined as 20 nM. On the same count and under the same terms, as for `CCN(CC)CC(C)OC(=O)c1cc(-c2csc(-c3ccncc3)n2)c(=O)[nH]c1C(C)C` (stereo not drawn), the figure is 36 nM; as for `CCCc1[nH]c(=O)c(-c2csc(-c3ccncc3)n2)cc1C(=O)OCC`, 55 nM; as for `CCN(CC)CCOC(=O)c1cc(-c2csc(-c3ccncc3)n2)c(=O)[nH]c1C(C)C`, 53 nM. For `CCCc1[nH]c(=O)c(-c2csc(CS(=O)(=O)c3ccccc3)n2)cc1C(=O)OCC`, the IC50 in series [1] came out at 1.4 nM. In addition, the fold change (FC) in the series filed under Homo sapiens came out at 70. With `CCOC(=O)c1cc(-c2csc(-c3ccnc(NC)c3)n2)c(=O)[nH]c1C(C)C`, the IC50 in series [1] is 28 nM. On the same count and under the same terms, as for `CCOC(=O)c1cc(-c2csc(-c3ccnc(OC)c3)n2)c(=O)[nH]c1C(C)C`, the figure is 672 nM.
